Test results published in US20250197387A1, “BCL-XL DEGRADERS AND USES THEREOF” (Kymera Therapeutics, Inc., priority 2021, published 2025).

Legend:
Type in all cases: cell-based
BCL-XL [1] = molecular target: T1, BCL-XL (Homo sapiens, UniProt Q07817); assay: Bcl-xL ELISA degradation in MOLT-4 cells, 6 h; conditions: for DC50: read-out: Bcl-xL ELISA in MOLT-4 degradation 6 h: Mean external-Abs DC50
T1 construct: endogenous in cells; host or cells: MOLT-4
Description: The letter codes for BCL-XL DC50 include: A (<0.01 μM); B (0.01-0.1 μM); C (>[…]); D (>0.5-1.0 μM); and E (>1.0 μM). The letter codes for Dmax % include A (>75%); B (50 to 75%); C (<50%).

BCL-XL [2] = molecular target: T1, BCL-XL; assay: BCL-XL degradation assay, western blot in MOLT-4 cells, 16 h; conditions: western blot, MOLT-4 cells, 16 h; for Dmax: read-out: Bcl-xL WB in MOLT-4 degradation 16 h: Average Dmax %; for DC50: read-out: Bcl-xL WB in MOLT-4 degradation 16 h: Mean external-Abs DC50
How it was run: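 MOLT-4 cells treated with compounds at 0.02-10 μM final for 16 hr at 37° C; lysates analysed by western blot with anti-BCL-xL, beta-actin and GAPDH loading controls, infrared imaging and densitometry; DC50 and Dmax % reported as letter codes.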

MOLT-4 cells = assay: CTG (CellTiter-Glo) cell viability assay, MOLT-4; conditions: Homo sapiens, MOLT-4, 72 h, 3 day incubation, read-out: CTG Cell Viability Assay - MOLT-4 3 day: Average external-IC50
Description: Compound-mediated viability effect on MOLT-4 and Caki-2 was quantitatively determined using the CellTiter-Glo® Luminescent Cell Viability Assay kit from Promega (Catalog number G7570) following manufacturer's recommended procedures. Briefly, MOLT-4 and Caki-2 cells were seeded into 384 well plates (Grenier Bio-One, Catalog number 781080) with a density of 10,000 cells per well. Compounds were then added to the assay plate with final top concentration of 10 μM and 1:3 dilution series with total of 9 doses. The final DMSO concentration is normalized to 0.2%. The assay plates were incubated at 37° C., for 3 days under 5% CO2. Then the assay plate was equilibrated at room temperature for 10 minutes. To determine cell viability, 30 uL CellTiter Glo reagent was added to each well and the assay plate was centrifuged at 1000 rpm for 30 second, incubated at room temperature for 10 min, and analyzed by detecting the luminescence using a multimode plate reader (EnVision 2105, PerkinElmer). The data was then analyzed by software Prism 7.0 from GraphPad and the dose response curves are fit using a three-parameter logistic equation to calculate IC50.
The letter codes for MOLT-4 IC50 include: A (<0.1 μM); B (0.1-1.0 μM); C (>1.0-3.0 μM); and D (>3.0 μM). The letter codes for Caki-2 IC50 include: A (<0.1 μM); B (0.1-1.0 μM); C (>1.0-10.0 μM); and D (>10.0 μM).

T1 sequence (Q07817 whole entry): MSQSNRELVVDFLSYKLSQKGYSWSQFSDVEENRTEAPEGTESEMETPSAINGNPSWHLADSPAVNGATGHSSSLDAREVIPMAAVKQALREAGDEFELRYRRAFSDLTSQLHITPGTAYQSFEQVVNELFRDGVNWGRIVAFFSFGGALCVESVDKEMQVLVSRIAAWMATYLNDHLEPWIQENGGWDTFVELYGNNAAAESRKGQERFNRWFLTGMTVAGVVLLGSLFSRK

| Compound | Dmax (BCL-XL [1]) | DC50 (BCL-XL [1]) | Dmax (BCL-XL [2]) | IC50 (MOLT-4 cells) | DC50 (BCL-XL [2]) |
| --- | --- | --- | --- | --- | --- |
| Cc1ncsc1-c1ccc(CNC(=O)[C@@H]2C[C@@H](O)CN2C(=O)[C@@H](NC(=O)C2(F)CC2)C(C)(C)C)c(OCCCC(=O)N(C)CC[C@H](CSc2ccccc2)Nc2ccc(S(=O)(=O)NC(=O)c3ccc(N4CCN(CC5=C(c6ccc(Cl)cc6)CCC(C)(C)C5)CC4)cc3)cc2S(=O)(=O)C(F)(F)F)c1 [I-146] | – | – | – | 100 to 1000 nM | – |
| Cc1ncsc1-c1ccc([C@H](CC(=O)N(C)CCCCCC(=O)N2CCN(CC[C@H](CSc3ccccc3)Nc3ccc(S(=O)(=O)NC(=O)c4ccc(N5CCN(CC6=C(c7ccc(Cl)cc7)CCC(C)(C)C6)CC5)cc4)cc3S(=O)(=O)C(F)(F)F)CC2)NC(=O)[C@@H]2C[C@@H](O)CN2C(=O)[C@@H](NC(=O)C2(F)CC2)C(C)(C)C)cc1 [I-147] | – | – | – | 1000 to 3000 nM | – |
| Cc1ncsc1-c1ccc([C@H](C)NC(=O)[C@@H]2C[C@@H](O)CC2C(=O)[C@@H](NC(=O)CCCC(=O)N2CCN(C(=O)COC3(Cn4cc(-c5ccc(N6CCc7cccc(C(=O)Nc8nc9ccccc9s8)c7C6)nc5C(=O)O)cn4)CCCCC3)CC2)C(C)(C)C)cc1 (stereo partly shown) [I-149] | – | – | – | > 3000 nM | – |
| Cc1ncsc1-c1ccc([C@H](C)NC(=O)[C@@H]2C[C@@H](O)CN2C(=O)[C@@H](NC(=O)CCCC(=O)N(C)CCCC2(Cn3ncc(-c4ccc(N5CCc6cccc(C(=O)Nc7nc8ccccc8s7)c6C5)nc4C(=O)O)c3C)CCCCC2)C(C)(C)C)cc1 [I-150] | – | – | – | 100 to 1000 nM | – |
| Cc1ncsc1-c1ccc([C@H](C)NC(=O)[C@@H]2C[C@@H](O)CN2C(=O)[C@@H](NC(=O)COCCN2CCC(NC(=O)c3nc(N4CCc5cccc(C(=O)Nc6nc7ccccc7s6)c5C4)ccc3-c3cnn(CC4CCCCC4)c3C)CC2)C(C)(C)C)cc1 [I-152] | – | – | – | 1000 to 3000 nM | – |
| Cc1ncsc1-c1ccc([C@H](C)NC(=O)[C@@H]2C[C@@H](O)CN2C(=O)C(c2cc(OC3CN(c4ccc(S(=O)(=O)NC(=O)c5nc(N6CCc7cccc(C(=O)Nc8nc9ccccc9s8)c7C6)ccc5-c5cnn(CC6CCCCC6)c5C)cc4)C3)no2)C(C)C)cc1 (stereo partly shown) [I-230] | > 75% | 10 to 100 nM | > 75% | – | < 10 nM |
| Cc1ncsc1-c1ccc([C@H](C)NC(=O)[C@@H]2C[C@@H](O)CN2C(=O)[C@@H](c2cc(N3CC(N4CCC(NC(=O)c5nc(N6CCc7cccc(C(=O)Nc8nc9ccccc9s8)c7C6)ccc5-c5cnn(CC6CCCCC6)c5C)CC4)C3)no2)C(C)C)cc1 [I-236] | 50 to 75% | 100 to 500 nM | > 75% | – | < 10 nM |
| Cc1ncsc1-c1ccc([C@H](C)NC(=O)[C@@H]2C[C@@H](O)CN2C(=O)C(c2cc(OC3CC4(C3)CN(C(=O)c3nc(N5CCc6cccc(C(=O)Nc7nc8ccccc8s7)c6C5)ccc3-c3cnn(CC5CCCCC5)c3C)C4)no2)C(C)C)cc1 (stereo partly shown) [I-237] | 50 to 75% | 100 to 500 nM | > 75% | – | < 10 nM |
| C#Cc1ccc([C@H](CO)NC(=O)[C@@H]2C[C@@H](O)CN2C(=O)[C@@H](NC(=O)C2CCN(c3ccc(S(=O)(=O)NC(=O)c4nc(N5CCc6cccc(C(=O)Nc7nc8ccccc8s7)c6C5)ccc4-c4cnn(CC5CCCCC5)c4C)cc3)CC2)C(C)(C)C)cc1 [I-242] | > 75% | 10 to 100 nM | > 75% | – | < 10 nM |
| Cc1cc(N(C)c2ccc(-c3cnn(CC45CC6CC(CC(C6)C4)C5)c3C)c(C(=O)NS(=O)(=O)c3ccc(N4CCC(C(=O)N[C@H](C(=O)N5C[C@H](O)C[C@H]5C(=O)N[C@@H](C)c5ccc(-c6scnc6C)cc5)C(C)(C)C)CC4)cc3)n2)nnc1Nc1nc2ccccc2s1 [I-246] | > 75% | 10 to 100 nM | > 75% | – | < 10 nM |
| Cc1ncsc1-c1ccc([C@H](C)NC(=O)[C@@H]2C[C@@H](O)CN2C(=O)[C@@H](NC(=O)N2CC3(CC(N4CCN(C(=O)c5nc(N6CCc7cccc(C(=O)Nc8nc9ccccc9s8)c7C6)ccc5-c5cnn(CC6CCCCC6)c5C)CC4)C3)C2)C(C)(C)C)cc1 [I-248] | < 50% | > 1000 nM | 50 to 75% | – | 10 to 100 nM |
| Cc1ncsc1-c1ccc(CNC(=O)[C@@H]2C[C@@H](O)CN2C(=O)[C@@H](NC(=O)C2(F)CC2)C(C)(C)C)c(OCC2CCN(CC[C@H](CSc3ccccc3)Nc3ccc(S(=O)(=O)NC(=O)c4ccc(N5CCN(CC6=C(c7ccc(Cl)cc7)CCC(C)(C)C6)CC5)cc4)cc3S(=O)(=O)C(F)(F)F)CC2)c1 [I-249] | < 50% | > 1000 nM | > 75% | – | < 10 nM |
| Cc1ncsc1-c1ccc([C@H](C)NC(=O)[C@@H]2C[C@@H](O)CN2C(=O)[C@@H](NC(=O)C[C@H]2CC[C@H](C(=O)N3CCN(CC[C@H](CSc4ccccc4)Nc4ccc(S(=O)(=O)NC(=O)c5ccc(N6CCN(CC7=C(c8ccc(Cl)cc8)CCC(C)(C)C7)CC6)cc5)cc4S(=O)(=O)C(F)(F)F)CC3)CC2)C(C)(C)C)cc1 [I-390] | – | – | > 75% | – | 10 to 100 nM |
| Cc1ncsc1-c1ccc([C@H](C)NC(=O)[C@@H]2C[C@@H](O)CN2C(=O)[C@@H](NC(=O)[C@H]2CC[C@H](CC(=O)N3CCN(CC[C@H](CSc4ccccc4)Nc4ccc(S(=O)(=O)NC(=O)c5ccc(N6CCN(CC7=C(c8ccc(Cl)cc8)CCC(C)(C)C7)CC6)cc5)cc4S(=O)(=O)C(F)(F)F)CC3)CC2)C(C)(C)C)cc1 [I-391] | – | – | > 75% | – | 10 to 100 nM |

Results, then the molecule that gave them:

| Dmax (BCL-XL [1]) | DC50 (BCL-XL [1]) | Dmax (BCL-XL [2]) | IC50 (MOLT-4 cells) | DC50 (BCL-XL [2]) | Compound |
| --- | --- | --- | --- | --- | --- |
| < 50% | 10 to 100 nM | < 50% | – | – | Cc1ncsc1-c1ccc([C@H](C)NC(=O)[C@@H]2C[C@@H](O)CN2C(=O)[C@@H](NC(=O)N2CCC(CN3CCN(CC#Cc4ccc(OCCCc5sc(N6CCc7cccc(C(=O)Nc8nc9ccccc9s8)c7C6)nc5C(=O)O)c(F)c4)CC3)CC2)C(C)(C)C)cc1 [I-72] |
| – | – | – | < 100 nM | – | Cc1ncsc1-c1ccc([C@H](C)NC(=O)[C@@H]2C[C@@H](O)CN2C(=O)[C@@H](NC(=O)CCCCCCCCC(=O)N(C)CC#Cc2ccc(OCCCc3ccc(N4CCc5cccc(C(=O)Nc6nc7ccccc7s6)c5C4)nc3C(=O)O)c(F)c2)C(C)(C)C)cc1 [I-148] |
| – | – | – | 1000 to 3000 nM | – | Cc1ncsc1-c1ccc([C@H](C)NC(=O)[C@@H]2C[C@@H](O)CN2C(=O)[C@@H](NC(=O)N2CC(CN3CCC(CNC(=O)c4nc(N5CCc6cccc(C(=O)Nc7nc8ccccc8s7)c6C5)ccc4-c4cnn(CC5CCCCC5)c4C)CC3)C2)C(C)(C)C)cc1 [I-153] |
| – | – | – | 1000 to 3000 nM | – | Cc1ncsc1-c1ccc([C@H](C)NC(=O)[C@@H]2C[C@@H](O)CN2C(=O)[C@@H](NC(=O)C2(F)CC2)C(C)(C)C)c(OCCN2CCN(CC[C@H](CSc3ccccc3)Nc3ccc(S(=O)(=O)NC(=O)c4ccc(N5CCN(CC6=C(c7ccc(Cl)cc7)CCC(C)(C)C6)CC5)cc4)cc3S(=O)(=O)C(F)(F)F)CC2)c1 [I-154] |
| 50 to 75% | 10 to 100 nM | > 75% | – | < 10 nM | Cc1ncsc1-c1ccc([C@H](C)NC(=O)[C@@H]2C[C@@H](O)CN2C(=O)[C@@H](c2cc(N3CC4(CN(c5ccc(S(=O)(=O)NC(=O)c6nc(N7CCc8cccc(C(=O)Nc9nc%10ccccc%10s9)c8C7)ccc6-c6cnn(CC7CCCCC7)c6C)cc5)C4)C3)no2)C(C)C)cc1 [I-226] |
| < 50% | > 1000 nM | 50 to 75% | – | 10 to 100 nM | Cc1ncsc1-c1ccc([C@H](C)NC(=O)[C@@H]2C[C@@H](O)CN2C(=O)C(c2cc(OC3CCN(CCNC(=O)c4nc(N5CCc6cccc(C(=O)Nc7nc8ccccc8s7)c6C5)ccc4-c4cnn(CC5CCCCC5)c4C)CC3)no2)C(C)C)cc1 (stereo partly shown) [I-234] |
| > 75% | 10 to 100 nM | > 75% | – | < 10 nM | Cc1ncsc1-c1ccc([C@H](C)NC(=O)[C@@H]2C[C@@H](O)CN2C(=O)[C@@H](NC(=O)C2CCN(c3ccc(S(=O)(=O)NC(=O)c4nc(N5CCc6cccc(C(=O)Nc7nc8cccnc8s7)c6C5)ccc4-c4cnn(CC5CCCCC5)c4C)cc3)CC2)C(C)(C)C)cc1 [I-241] |
| > 75% | 10 to 100 nM | > 75% | – | < 10 nM | Cc1cc(N2CCC(C(=O)N[C@H](C(=O)N3C[C@H](O)C[C@H]3C(=O)N[C@@H](C)c3ccc(-c4scnc4C)cc3)C(C)(C)C)CC2)ccc1S(=O)(=O)NC(=O)c1nc(N2CCc3cccc(C(=O)Nc4nc5ccccc5s4)c3C2)ccc1-c1cnn(CC2CCCCC2)c1C [I-275] |
| – | – | < 50% | – | > 1000 nM | Cc1ncsc1-c1ccc([C@H](C)NC(=O)[C@@H]2C[C@@H](O)CN2C(=O)[C@@H](NC(=O)CCCCCC(=O)N2CCN(CC[C@@H](CSc3ccccc3)Nc3ccc(S(=O)(=O)NC(=O)c4ccc(N5CCC(C)(C)CC5)cc4)cc3S(=O)(=O)C(F)(F)F)CC2)C(C)(C)C)cc1 [I-393] |
